Results: US4252795A, “N-substituted dimeric cyclopeptide derivatives and preparation thereof” (Ayerst McKenna and Harrison Inc., priority 1978, dated 1981)

What was measured:
Serratia marcescens = test: serial broth dilution, growth inhibition; format: cell-based; details: nutrient broth, incubated at 37° C. for 2 days, examined for presence of growth
Description: (§1) Grove and W. A. Randall in "Assay Methods of Antibiotics", Med. Encycl. Inc., [New York] 955. […] 289.
(§2) For example, by employing a test like the serial broth dilution, see Grove and Randall, cited above, in which dilutions of the compounds of this invention in nutrient broth are inoculated with the microorganisms or fungi, described above, incubated at 37° C. for 2 days, respectively, and examined for the presence of growth, it may be shown that the preferred compounds N'N'-dicyclohexyl-α,α'-diisopropyl-2,5,8,11,14,17-hexaoxo-1,4,7,10,13,16-hexaazacyclooctadecane-1,10-diacetamide, isomer L, (Example 1), N'N'-dicyclohexyl-α,α'-diisopropyl-2,5,8,11,14,17-hexaoxo-1,4,7,10,13,16-hexaazacyclooctadecane-1,10-diacetamide, isomer M, (Example 1), and α,α'-diphenyl-N'N'-dicyclohexyl-2,5,8,11,14,17-hexaoxo-1,4,7,10,13,16-hexaazacyclooctadecane-1,10-diacetamide, isomer L, (Example 1) are able to inhibit growth totally in this system of Klebsiella pneumoniae and Serratia marcescens at a concentration of 100 mcg/ml.

Klebsiella pneumoniae = test: serial broth dilution, growth inhibition; format: cell-based; details: nutrient broth, incubated at 37° C. for 2 days, examined for presence of growth
Description: as §1, §2

| Structure (SMILES) | concentration able to inhibit growth totally (Serratia marcescens) | concentration able to inhibit growth totally (Klebsiella pneumoniae) |
| --- | --- | --- |
| O=C1CNC(=O)CN(C(C(=O)NC2CCCCC2)c2ccccc2)C(=O)CNC(=O)CNC(=O)CN(C(C(=O)NC2CCCCC2)c2ccccc2)C(=O)CN1 (stereo not drawn) [α,α'-diphenyl-N,N'-dicyclohexyl-2,5,8,11,14,17-hexaoxo-1,4,7,10,13,16-hexaazacyclooctadecane-1,10-diacetamide] | 100 µg/mL | 100 µg/mL |
| CC(C)C(C(=O)NC1CCCCC1)N1CC(=O)NCC(=O)NCC(=O)N(C(C(=O)NC2CCCCC2)C(C)C)CC(=O)NCC(=O)NCC1=O (stereo not drawn) [N,N'-Dicyclohexyl-α,α'-diisopropyl-2,5,8,11,14,17-hexaoxo-1,4,7,10,13,16-hexaazacyclooctadecane-1,10-diacetamide] | 100 µg/mL | 100 µg/mL |
